Measurements taken from patent publication US8252832B2, “Kinesin inhibitors as cancer therapeutics” (Novartis AG, priority 2007, dated 2012).
Like-named read-outs stand apart in the source and are kept apart here.

Experiments:
Assay in all cases: CellTiter-Glo, hematologic malignancy panel
K562 = assay type: cell-based; details: CML; for GI50: Homo sapiens
Text: (§1) Identification of tumor types that are the most sensitive to the KSP inhibitors of the present invention can be accomplished using an unbiased approach that uses several cell-based assays. The assays chosen were as follows: • CellTiter-Glo®. This is an assay designed to measure ATP concentration in a cell culture, and can be correlated to cell number. Briefly CellTiter-Glo® (Promega Corporation) is a homogeneous method using the single CellTiter-Glo® reagent to detect ATP wherein ATP in the assay drives the activity of a thermostable luciferase to create a luminescent signal which can then be measured and correlated with the number of viable cells. Briefly, for adherent cells, 1,000 to 5,000 cells/well were plated in 96-well plates (100 μl/well) and let to adhere for 24 hours before being treated with drug. For non-adherent cells, 1,000 to 10,000 cells/well were plated in 96-well plates (100 μl/well) and immediately treated with drug. Drug dilutions were prepared in DMSO at 1000 times the final concentration. These dilutions were then diluted 1/100 in growth media before being added to the cells (11 μl/well) to achieve the desired final concentration. After 48 h in a 37° C. tissue culture incubator, the plates were processed for the CellTiter-Glo®assay according to the manufacturer's instructions. Protocol for a 72 hour cell proliferation assay: The 72 hour assay was performed the same way as the 48 hour assay except for the following modifications: For adherent cells, 500 to 5,000 cells/well were plated in 96-well plates (90 μl/well cell growth media) and left to adhere for 24 hours before being treated with drug. For non-adherent cells, 1,000 to 10,000 cells/well were plated in 96-well plates (90 μl/well cell growth media) and immediately treated with drug. Data values presented represent the concentration of test compound required for a 50% reduction in growth. • LDH release. The Cytotoxicity Detection KitPLUS (LDH) assay (Roche Diagnostics, Manheim, Germany) measures the amount of LDH released in the media by dying cells; LDH catalyzes the conversion of lactate into pyruvate. The enzymatic reaction is coupled to a chemical reaction that uses a tetrazolium salt to form a formazan that is red and can be detected by its absorbance at 490 nm. This assay measures the amount of cell death after drug treatment. Cells were plated at 10,000 cells/well in 96-well plates (100 μl/well). Adherent cells were let to adhere for 24 hours before being treated with drug, whereas non-adherent cells were immediately treated with drug. Drug dilutions were prepared in DMSO at 1000 times the final concentration. These dilutions were then diluted 1/100 in growth media before being added to the cells (11 μl/well) to achieve the desired final concentration. After 48 h in a 37° C. tissue culture incubator, the plates were processed for the Cytotoxicity Detection KitPLUS (LDH) assay according to the manufacturer's instructions. The media only values were subtracted from all the data points before analysis. Data values presented correspond to the compound concentration wherein LDH output is at half maximal level. • Caspase-Glo® 3/7. The Caspase-Glo® 3/7 Assay (Promega Corporation) is a homogeneous luminescent assay that measures caspase-3/7 activities. The assay provides a proluminescent caspase-3/7 DEVD-aminoluciferin substrate and a thermostable luciferase in a reagent optimized for caspase-3/7 activity, luciferase activity and cell lysis. Adding the single Caspase-Glo® 3/7 Reagent results in cell lysis, followed by caspase cleavage of the substrate. This liberates free aminoluciferin, which is consumed by the luciferase, generating a luminescent signal. The signal is proportional to caspase-3/7 activity. Data values presented correspond to the compound concentration wherein caspase 3/7 activity is at half maximal level. […]

KMS11 = assay type: cell-based; details: for GI50: Homo sapiens, KMS-11, MM
Text: as §1

KMS26 = assay type: cell-based; details: for GI50: KMS-26, MM
Text: as §1

Kasumi-1 = assay type: cell-based; details: AML; for GI50: Homo sapiens
Text: as §1

L363 = assay type: cell-based; details: for GI50: Homo sapiens, L-363, MM
Text: as §1

L428 = assay type: cell-based; details: for GI50: Homo sapiens, L-428, HL
Text: as §1

MOLT-4 = assay type: cell-based; details: ALL; for GI50: Homo sapiens
Text: as §1

OPM2 = assay type: cell-based; details: for GI50: Homo sapiens, OPM-2, MM
Text: as §1

SEM-Luc = assay type: cell-based; details: ALL
Text: as §1

SR = assay type: cell-based; details: NHL; for GI50: Homo sapiens
Text: as §1

SUDHL-4 = assay type: cell-based; details: for GI50: Homo sapiens, SU-DHL-4, NHL
Text: as §1

KMS11-Luc = assay type: cell-based, human; details: MM; for GI50: Homo sapiens
Text: as §1

MV4; 11Luc = assay type: cell-based, human; details: AML; for GI50: Homo sapiens
Text: as §1

MV4; 11 = assay type: cell-based, human; details: AML; for GI50: Homo sapiens
Text: as §1

RL = assay type: cell-based, human; details: NHL; for GI50: Homo sapiens
Text: as §1

[1] = GI50 in nM, read-out: Log(GI50) (converted)

## CC(C)(C)[C@H](c1nc(-c2cc(F)ccc2F)cn1Cc1ccccc1)N(CC[C@H](N)CF)C(=O)CO [Compound IIa]
K562
  Differential vs mean Log(GI50): 0.210
K562; [1]
  GI50: 0.209 nM
K562; read-out: GI50
  GI50: 0.21 nM
KMS11; [1]
  GI50: 0.483 nM
KMS11; read-out: GI50
  GI50: 0.48 nM
KMS11; MM
  Differential vs mean Log(GI50): −0.154
KMS26; [1]
  GI50: 0.24 nM
KMS26; read-out: GI50
  GI50: 0.24 nM
KMS26; MM
  Differential vs mean Log(GI50): 0.150
Kasumi-1
  Differential vs mean Log(GI50): −0.113
Kasumi-1; [1]
  GI50: 0.44 nM
Kasumi-1; read-out: GI50
  GI50: 0.44 nM
L363; [1]
  GI50: 0.13 nM
L363; read-out: GI50
  GI50: 0.13 nM
L363; MM
  Differential vs mean Log(GI50): 0.416
L428; HL
  Differential vs mean Log(GI50): −1.771
L428; [1]
  GI50: 20 nM
L428; read-out: GI50
  GI50: 20 nM
MOLT-4
  Differential vs mean Log(GI50): 0.010
MOLT-4; [1]
  GI50: 0.331 nM
MOLT-4; read-out: GI50
  GI50: 0.33 nM
OPM2; [1]
  GI50: 0.135 nM
OPM2; read-out: GI50
  GI50: 0.14 nM
OPM2; MM
  Differential vs mean Log(GI50): 0.400
SEM-Luc
  Differential vs mean Log(GI50): 0.354
SEM-Luc; [1]
  GI50: 0.15 nM
SEM-Luc; read-out: GI50
  GI50: 0.15 nM
SR; [1]
  GI50: 0.11 nM
SR; read-out: GI50
  GI50: 0.11 nM
SR
  Differential vs mean Log(GI50): 0.487
SUDHL-4; [1]
  GI50: 0.447 nM
SUDHL-4; read-out: GI50
  GI50: 0.45 nM
SUDHL-4; NHL
  Differential vs mean Log(GI50): −0.120
KMS11-Luc; [1]
  GI50: 0.29 nM
KMS11-Luc; read-out: GI50
  GI50: 0.29 nM
KMS11-Luc
  Differential vs mean Log(GI50): 0.068
MV4; 11Luc
  Differential vs mean Log(GI50): 0.509
MV4; 11Luc; [1]
  GI50: 0.105 nM
MV4; 11Luc; read-out: GI50
  GI50: 0.11 nM
MV4; 11
  Differential vs mean Log(GI50): 0.644
MV4; 11; [1]
  GI50: 0.0769 nM
MV4; 11; read-out: GI50
  GI50: 0.08 nM
RL; [1]
  GI50: 20 nM
RL; read-out: GI50
  GI50: 20 nM
RL
  Differential vs mean Log(GI50): −1.771
